Assay results taken from patent US20250144187A1, “COMBINATION OF HYDROLASES AND ANTI-MICROORGANISM DRUGS AND USES THEREOF” (CENTRE FOR EYE AND VISION RESEARCH LIMITED, priority 2023, published 2025).

Assays:
Format in all cases: cell-based, Staphylococcus aureus
MRSA [1] = test: Time-killing curves, cefdinir/lysozyme; conditions: 0.5 mg/ml lysozyme + 0.5 μg/ml cefdinir, after 16 hours; reduced from the level of 10^10
Description: 3) Time-killing curves. According to standard method [Thappeta K R V et al., ACS Infect Dis 6, 1228-1237 (2020)], over-night cultured MRSA was diluted and aliquoted into new sterile 50 ml tubes at 1:1000 ratio. Then, the bacterial suspension was cultured in LB medium containing 0.5 or 2.0 μg/ml cefdinir, 0.5 mg/ml lysozyme or their combination at 37° C. with shaking at 250 rpm. Bacterial suspension without any drugs served as control group. To measure their kinetic time-killing curves, twenty micro liters of each culture was extracted at time intervals of 0, 2, 4, 6, 9 and 16 h for measurement of the OD600 and colony-forming units. Ten micro liters of each dilution was spotted on the LB-agar plates and incubated at 37° C. for 24 hours prior to enumeration. All assays were performed in triplicate.

MRSA [2] = test: High-throughput screening of 1953 FDA-approved compounds with human lysozyme; conditions: compound 25 μM + 1 mg/ml lysozyme, 24-hour
Description: 1) High-throughput screening. According to standard screening method [Zhong. […] Commun. 11, 523 (2020)], 1953 FDA-approved compounds from our drugs library at a fixed concentrations of 25 μM were screened against methicillin-resistant Staphylococcus aureus (MRSA) and Staphylococcus epidermis (a coagulase negative Staphylococci, MRSE), in combination with human lysozyme. Specifically, these compounds were added into bacterial suspensions (1×10^5 CFU/ml, in LB medium) in the absence or presence of 1 mg/ml lysozyme. LB medium without bacteria served as background group. Then, the real-time growth curvet of MRSA were monitored per hour and for 24 hours. Absorbance at 600 am (OD600) of bacterial culture at the time point of 24-hour was also measured. The inhibition ratio (%) was calculated as (ODcontrol−ODsample)/(ODcontrol−ODbackground)×100%. […] Herein, the relative and apparent inhibition ratios indicated the combination effect and potential toxicity of compound, respectively. Synergy effect was defined as the relative inhibition ratio of ≥90%. All assays were performed in triplicate.

MRSA [3] = test: High-throughput screening of 4989 compounds with human lysozyme; conditions: for MRSA Inhibition ratio (%): compound 2.5 μM + 1 mg/ml lysozyme relative to compound only
Description: 1) High-throughput screening. […] Specifically, these compounds were added into bacterial suspensions (1×10^6 CFU/ml) in the […] microliter plate, in which each well contained 50 μl of lysogeny broth (LB) medium with or without 1 mg/ml lysozyme. LB medium in the absence of bacteria served as background group. Then, the real-time growth curves of MRSA were monitored per hour and for 24 hours. Experiments were performed with the biological replicates. Fly analyzing the absorbance 600 nm (OD600) of bacterial culture at the time point of 24-hour, the inhibition ratio (%) was calculated according to (ODcontrol−ODsample)/(ODcontrol−ODbackground)×100%. Here, the relative and apparent inhibition ratios were figured out by using the absorbance of bacterial suspension only containing compound and that without any drug treatment as ODcontrol, respectively. The relative and apparent inhibition ratios indicated the combination effect and potential toxicity of compound in combination effect. Synergy effect was defined as the relative inhibition ratio of ≥90%.

MRSA [4] = test: ATP, NAD+/NADH and pyruvate levels, tedizolid phosphate/lysozyme; conditions: combination therapy for 1 hour
Description: 13) ATP, NAD^+/NADH and pyruvate levels. According to the described method [Liu. Y et al., Adv. Sci. 7, 1902227(2020)], mid-log-phase MRSA with the OD600 of 0.4 to 0.6 was treated with lysozyme, tedizolid phosphate or their combination at different concentrations. Those without any treatment served as control group. After 1 hour incubation at 37° C. all bacteria we collected and then washed by cold PBS for 3 times. […] Then, 75 μl of each supernatant was incubated 25 μl of reaction I, followed by continuous incubation with 125 μl of reaction II. By recording the absorbance at 520 mu, the pyruvate level in each sample was figured out according to the standard formula. The intensity in control group was defined as 100% and others were normalized.
Then, 20 si of each supernatant was added white 96-well plate pre-reactivated by 100 μl of ATP test solution (Beyotime Biotechnology, China), followed by luminometer measurement [Liu, Y et al., Adv. Sci 7, 1902227 (2020)]. To analyze the intracellular NAD^+ and NADH levels [Xue, C et al., Front. Pharmacol. 12, 600296 (2021)], each lysis supernatant was divided into two tubes. One tube was heated at 60° C. for 30 minutes in PCR machine to decompose NAD^+ if had. Then, this tube was further centrifuged at 18,000 g at 4° C. for 20 minutes to collect the supernatant. After that, 20 μl of supernatant from heated or unheated group was added white 96-well plate pre-reactivated by 90 μl/well of alcohol dehydrogenase solution (Beyotime Biotechnology, China) for 10 minutes incubation at 37° C. in the prevention of light, Next, 10 μl of staining solution (Beyotime Biotechnology, China) was added to react with product in previous reaction. After 30 minutes at 37° C. in the prevention of light, orange formazan was observed and then the absorbance at 450 nm was recorded. Intensities of those […] heat treatment indicated the levels of NADH+NAD^+ and NADH itself, respectively. Finally, according to the standard formula, the intracellular levels of NAD^+, NADH and their ratio were figured out. All results were expressed as average±SD. […]

C=CC1=C(C(=O)O)N2C(=O)[C@@H](NC(=O)/C(=N\O)c3csc(N)n3)[C@H]2SC1 [cefdinir, Cefdinir]
bacterial load (MRSA [1]): 10^7 CFU/ml
Growth inhibition ratio (mean ± SD, %) MRSA (MRSA [2]): 85.21 ± 9.84%
MRSA Combination (MRSA [3]; OD600 at 24-hour, compound 2.5 μM + 1 mg/ml lysozyme): 0.0564
MRSA Drug only (MRSA [3]; OD600 at 24-hour, compound 2.5 μM without lysozyme): 0.6975
MRSA Inhibition ratio (%) (MRSA [3]): above 90%
MRSA Inhibition ratio (%) (MRSA [3]; listed as Ce ? dinir): 99.16%

Cn1nnc(-c2ccc(-c3ccc(N4C[C@H](COP(=O)(O)O)OC4=O)cc3F)cn2)n1 [tedizolid phosphate, Tedizolid Phosphate]
decrease in the level of pyruvate (MRSA [4]): > 40%
level of ATP (MRSA [4]): higher levels of ATP
ratio of NAD+/NADH (MRSA [4]; increased from 8.84±1.89): 18.43±4.42
